Test results as given in US9107909B2, “Materials and methods to enhance hematopoietic stem cells engraftment procedures” (priority 2008, dated 2015).

Experiments:
homed SKL cells = test: In vivo cell cycle analysis (BrdU) of homed SKL cells; set-up: species or system mouse; conditions: BrdU treated recipient mice, 16 hours, vs vehicle pulsed cells
Method: For in vitro cell cycle analysis, Lin^neg cells were treated with either 1 microMolar dmPGE2 or vehicle for 2 hours, washed, and cultured in Stem Cell Pro Media (Stem Cell Technologies) with rmSCF (50 ng/ml) (R&D Systems, Minneapolis, Minn.), rhFlt-3 and rhTPO (100 ng/ml each) (Immunex, Seattle, Wash.). After 20 hours, cells were stained for SKL, fixed and permeabilized, and stained with 7AAD (BD Biosciences, San Jose, Calif.). The proportion of SKL cells in S+G2/M phase was determined by measuring DNA content by FACS. […] The proportion of homed (CD45.1^+) SKL cells that were BrdU^+ was determined by FACS in individual mice.
To confirm the effect of dmPGE2 on enhancement of HSPC cell cycle observed in vitro, marrow cells were pulsed with dmPGE2 and injected into congenic mice treated with BrdU post-transplant, and the proportion of donor BrdU^+ SKL cells was determined 16 hours later.
CD45.1 Lineage^neg bone marrow cells were treated with dmPGE2 or vehicle and transplanted into lethally irradiated CD45.2 mice. […] Bone marrow was analyzed 16 hours later and the proportion of CD45.1^+, SKL cells that were BrdU^+ was analyzed by FACS analysis. […] Bone marrow was analyzed 16 hours later and the proportion of CD45.1^+, SKL cells that were BrdU^+ was analyzed by FACS analysis. […]

[1] = tested on: CXCR4 on murine KL and SKL cells; test: CXCR4 surface expression by FACS after pulse exposure, murine cells; format: cell-based, mouse; conditions: for CXCR4 expression on KL and SKL cells: pulse-exposure of Lin neg cells, 24 hours
From the text: Expression of EP receptors, CXCR4 and Survivin Replicate Lin^neg cell samples from CD45.2 mice were stained for SKL and each of the EP receptors and surface receptor expression on KL and SKL cells determined by FACS. For human EP receptors, UCB was obtained from Wishard Hospital, Indianapolis, Ind. with Institutional Review Board approval. Mononuclear cells were isolated on Ficoll-Paque™ Plus (Amersham Biosciences) and CD34^+ cells positively selected with MACS microbeads (Miltenyi Biotech) (Fukuda and Pelus, 2001). Replicate cells were stained for CD34 and each of the EP receptors and surface expression determined by FACS. To evaluate CXCR4, Survivin and active caspase-3, Lin^neg cells or CD34^+ UCB were treated on ice with either 1 microMolar dmPGE2 or vehicle control for 2 hours, washed, and then cultured in RPMI-1640+10% FBS at 37° C. for 24 hours. Cells were stained for SKL (murine cells) and CXCR4, Survivin, and/or active caspase-3, as described above, and analyzed by FACS.
To evaluate CXCR4, Lineage^neg mouse bone marrow cells or CD34^+ UCB were treated on ice with either 1 microMolar dmPGE2 or vehicle control for 2 hours, washed, and then cultured in RPMI-1640/10% HI-FBS at 37° C. for 24 hours, stained for SKL (murine cells) or CD34 (human) and CXCR4 and analyzed by FACS. Referring now to FIG. 4A, CXCR4 expression on murine KL and SKL cells and human CD34^+ UCB cells 24 hours after treatment with dmPGE2. Data are expressed as Mean±SEM % change in mean fluorescence intensity (MFI) of CXCR4 due to treatment with dmPGE2 or vehicle (n=3).

| Structure (SMILES) | donor (homed) SKL cells in S+G2/M phase (homed SKL cells) | CXCR4 expression on KL and SKL cells [1] | increase in CXCR4 expression on SKL ([1]; after PGE2 exposure) |
| --- | --- | --- | --- |
| CCCCC(C)(C)[C@H](O)/C=C/[C@H]1[C@H](O)CC(=O)[C@@H]1C/C=C\CCCC(=O)O [dmPGE2, 16,16-dimethyl prostaglandin E2] | ~2 fold | increased CXCR4 expression | – |
| CCCCC[C@H](O)/C=C/[C@H]1[C@H](O)CC(=O)[C@@H]1C/C=C\CCCC(=O)O [PGE2, Prostaglandin E2] | ~2 fold | increased | 26.8% |
